Assay results from article PMC4981717, “Lcp1 Is a Phosphotransferase Responsible for Ligating Arabinogalactan to Peptidoglycan in Mycobacterium tuberculosis” (mBio, 2016).
Where “and” joins values, the source holds several entries; their conditions need not be identical. Equal entries are not always repeated. Entries after “also recorded” stand apart in the source; their conditions may differ.

Target: ^MtbLcp1 (Mycobacterium tuberculosis, UniProt P96872)
Assay: Intrinsic tryptophan fluorescence (ITF) ligand binding of linker unit analogues to recombinant ^MtbLcp1
Details: for Bmax: ITF saturation binding, change in fluorescence emission at λ = 341 nm; for Kd: ITF, single-site saturation model, 25°C, 0.026 µM ^MtbLcp1, λ = 341 nm, read-out: equilibrium dissociation constant, KD
Method: Intrinsic tryptophan fluorescence (ITF) ligand binding experiments of ^MtbLcp1 with saccharide ligands were conducted on a Hitachi F7000 fluorescence spectrophotometer with the temperature thermostatically regulated to 25°C. ^MtbLcp1 was diluted to 0.026 µM with dialysis buffer, and fluorescence spectra were measured at an excitation wavelength of 280 nm and emission wavelength of 300 to 400 nm with an excitation and emission slit width of 5 nm using a 500-µl crystal cuvette. ITF maximum (Femission^max) was recorded at λ = 341 nm, providing a basal Femission coordinate for the collection of subsequent ITF data. Increasing concentrations of ligands representing the linker unit (compounds 1 to 4) were added to the cuvette. The change in fluorescence emission (ΔFemission) was calculated by subtracting Femission (recorded 2 min after each ligand addition) from Femission^max. Changes of background fluorescence observed upon addition of equivalent volumes of dialysis buffer (the solvent in which compounds 1 to 4 were dissolved) were subtracted from the overall change in fluorescence, and the data were then plotted against ligand concentration, [L] (3 independent biological experiments). A plot of ΔFemission at λ = 341 nm versus [L] was fitted to a one-site specific binding equation using GraphPad Prism 5 software: ΔFemission = Fmax × [L]/(KD + [L]).

Sequence of ^MtbLcp1 (P96872 entry or part of it): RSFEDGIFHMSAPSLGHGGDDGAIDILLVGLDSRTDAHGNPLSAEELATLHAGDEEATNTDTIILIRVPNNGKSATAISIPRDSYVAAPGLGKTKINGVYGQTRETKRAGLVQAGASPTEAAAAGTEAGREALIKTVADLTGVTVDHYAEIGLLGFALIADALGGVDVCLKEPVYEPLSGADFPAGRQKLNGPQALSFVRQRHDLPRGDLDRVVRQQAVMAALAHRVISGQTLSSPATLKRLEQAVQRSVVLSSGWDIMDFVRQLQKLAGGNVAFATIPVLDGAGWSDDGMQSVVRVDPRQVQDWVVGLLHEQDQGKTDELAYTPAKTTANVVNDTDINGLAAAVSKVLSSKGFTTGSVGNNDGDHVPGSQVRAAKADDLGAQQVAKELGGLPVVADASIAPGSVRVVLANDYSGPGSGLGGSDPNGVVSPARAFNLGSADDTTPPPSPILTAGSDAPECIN

SMILES	Bmax	Kd	fold increase in affinity (tetrasaccharide ligand versus linker unit disaccharide (compound 1))	fold decrease in binding affinity (additional Galf residue, versus compound 2) [fold]	binding affinity toward ^MtbLcp1 in words (ITF assays, above background fluorescence)
CCCCCCCCO[C@H]1O[C@H](CO)[C@@H](O)[C@H](O[C@@H]2O[C@@H](C)[C@H](O)[C@@H](O)[C@H]2O)[C@H]1NC(C)=O [compound 1, octyl α-L-rhamnopyranosyl-(1→3)-2-acetamido-2-deoxy-α-D-glucopyranoside]	1448	57.7 µM			
CCCCCCCCOC1OC(CO)C(O)C(OC2OC(C)C(OC3OC(C(CO)OC4OC(C(O)CO)C(O)C4O)C(O)C3O)C(O)C2O)C1NC(C)=O [compound 2, octyl-β-D-galactofuranosyl-(1→5)-β-D-galactofuranosyl-(1→4)-α-L-rhamnopyranosyl-(1→3)-2-acetamido-2-deoxy-α-D-glucopyranoside]	1585	5.13 µM	~ 10 fold		
CCCCCCCCOC1OC(CO)C(O)C(OC2OC(C)C(OC3OC(C(CO)OC4OC(C(O)COC5OC(C(O)CO)C(O)C5O)C(O)C4O)C(O)C3O)C(O)C2O)C1NC(C)=O [compound 3, octyl-β-D-galactofuranosyl-(1→6)-β-D-galactofuranosyl-(1→5)-β-D-galactofuranosyl-(1→4)-α-L-rhamnopyranosyl-(1→3)-2-acetamido-2-deoxy-α-D-glucopyranoside]	1498	20.4 µM		4	
CCCCCCCCOC1OC(C)C(OC2OC(C(O)CO)C(O)C2O)C(O)C1O [compound 4, D-Galf-β(1→4)-L-Rhap]	177 and ~ 177.6	97.6 µM and ~97.6 µM			no significant binding affinity (above background); also recorded: no recordable affinity
